Literature values, collected in patent US20060258652A1, “Beta-blockers having antioxidant and no-donor activity” (priority 2002, published 2006).

Experiments:
[1] = double-blind study, hypertensive patients
[2] = prophylactic use

Structure (SMILES) | efficacy in anxiety compared with propranolol [1] | patients in whom the incidence of migraine attacks is reduced [2] [%]
CC(C)NCC(O)COc1ccc(CC(N)=O)cc1 (centres unmarked) [atenolol] | considerably better than propranolol | 
CC(C)NCC(O)COc1cccc2ccccc12 (centres unmarked) [Propranolol] |  | 60
